Measurements published in ChEMBL document CHEMBL5357033, “Discovery of Diverse Sesquiterpenoids from Crossiella cryophila through Genome Mining and NMR Tracking” (J Nat Prod, 2024).

Columns and labels:
Staphylococcus capitis = assay: Antimicrobial activity against Staphylococcus capitis W7 assessed as reduction in microbial growth by broth microdilution method; assay type: functional
Micrococcus luteus = assay: Antimicrobial activity against Micrococcus luteus ATCC 4685 assessed as reduction in microbial growth by broth microdilution method; assay type: functional
Staphylococcus aureus [1] = assay: Antimicrobial activity against methicillin resistant Staphylococcus aureus assessed as reduction in microbial growth by broth microdilution method; assay type: functional
Enterococcus = assay: Antimicrobial activity against Vancomycin-resistant Enterococci assessed as reduction in microbial growth by broth microdilution method; assay type: functional
Staphylococcus aureus [2] = assay: Antimicrobial activity against Staphylococcus aureus LV-B1 assessed as reduction in microbial growth by broth microdilution method; assay type: functional
Bacillus subtilis = assay: Antimicrobial activity against Bacillus subtilis ATCC 6051 assessed as reduction in microbial growth by broth microdilution method; assay type: functional
Klebsiella pneumoniae = assay: Antimicrobial activity against Klebsiella pneumoniae W5 assessed as reduction in microbial growth by broth microdilution method; assay type: functional
Escherichia coli = assay: Antimicrobial activity against Escherichia coli CGMCC 1.3344 assessed as reduction in microbial growth by broth microdilution method; assay type: functional
Shigella sonnei = assay: Antimicrobial activity against Shigella sonnei ZD12 assessed as reduction in microbial growth by broth microdilution method; assay type: functional
Paracidovorax avenae = assay: Antimicrobial activity against Acidovorax avenae ATCC 19307 assessed as reduction in microbial growth by broth microdilution method; assay type: functional
Pseudomonas syringae = assay: Antimicrobial activity against Pseudomonas syringae ATCC-BAA-2502 assessed as reduction in microbial growth by broth microdilution method; assay type: functional
Xanthomonas oryzae = assay: Antimicrobial activity against Xanthomonas oryzae ATCC 35933 assessed as reduction in microbial growth by broth microdilution method; assay type: functional
A549 = assay: Anticancer activity against human A549 cells assessed as reduction in cell viability at 40 uM measured after 48 hrs by CCK-8 method relative to control; assay type: functional
HepG2 = assay: Anticancer activity against human HepG2 cells assessed as reduction in cell viability at 40 uM measured after 48 hrs by CCK-8 method relative to control; assay type: functional
SW480 = assay: Anticancer activity against human SW480 cells assessed as reduction in cell viability at 40 uM measured after 48 hrs by CCK-8 method relative to control; assay type: functional
MDA-MB-231 = assay: Anticancer activity against human MDA-MB-231 cells assessed as reduction in cell viability at 40 uM measured after 48 hrs by CCK-8 method relative to control; assay type: functional
MCF7 = assay: Anticancer activity against human MCF7 cells assessed as reduction in cell viability at 40 uM measured after 48 hrs by CCK-8 method relative to control; assay type: functional
RAW264.7 [3] = assay: Cytotoxicity against mouse RAW264.7 cells measured after 24hrs by CCK-8 method relative to control; assay type: toxicity, cell-based; parameters: concentration or dose not given beside the values; conditions: raw264.7, 24 h
RAW264.7 [4] = assay: Antiinflammatory activity in mouse RAW264.7 assessed as reduction in LPS-induced NO production incubated for 24 hrs by Griess method relative to control; assay type: functional; parameters: concentration or dose not given beside the values

| Structure (SMILES) | MIC (Staphylococcus capitis) [µg/mL] | MIC (Micrococcus luteus) [µg/mL] | MIC (Staphylococcus aureus [1]) [µg/mL] | MIC (Enterococcus) [µg/mL] | MIC (Staphylococcus aureus [2]) [µg/mL] | MIC (Bacillus subtilis) [µg/mL] | MIC (Klebsiella pneumoniae) [µg/mL] | MIC (Escherichia coli) [µg/mL] | MIC (Shigella sonnei) [µg/mL] | MIC (Paracidovorax avenae) [µg/mL] | MIC (Pseudomonas syringae) [µg/mL] | MIC (Xanthomonas oryzae) [µg/mL] | Activity (A549) [%] | Activity (HepG2) [%] | Activity (SW480) [%] | Activity (MDA-MB-231) [%] | Activity (MCF7) [%] | Activity (RAW264.7 [3]) [%] | Activity (RAW264.7 [4]) [%] |
| --- | --- | --- | --- | --- | --- | --- | --- | --- | --- | --- | --- | --- | --- | --- | --- | --- | --- | --- | --- |
| C[C@H]1CC[C@@H](O)[C@]2(C)CC[C@@H](C(C)(C)O)[C@H](O)[C@@H]12 | > 128 | > 128 | > 128 | > 128 | > 128 | > 128 | > 128 | > 128 | > 128 | > 128 | > 128 | > 128 | 0.97 | -2.3 | 10.33 | -2.4 | 5.53 | 88.18 | 3.3 |
| C/C1=C\CC/C(CO)=C\[C@H]2[C@H](C[C@H]1O)C2(C)C | > 128 | > 128 | > 128 | > 128 | > 128 | > 128 | > 128 | > 128 | > 128 | > 128 | > 128 | > 128 | 7.59 | 6.04 | 46.36 | 6.53 | 15.37 | 83.59 | -1.42 |
| CC1=C[C@@H]2[C@@H](C(C)C)CC[C@@](C)(O)[C@@H]2CC1=O | > 128 | > 128 | > 128 | > 128 | > 128 | > 128 | > 128 | > 128 | > 128 | > 128 | > 128 | > 128 | 8.55 | -9.79 | -22.26 | 20.55 | 13.45 | 82.62 | -11.3 |
| C[C@@H]1C(=O)C[C@@H]2[C@H]3[C@H]1OC(C)(C)[C@H]3CC[C@@]2(C)O | > 128 | > 128 | > 128 | > 128 | > 128 | > 128 | > 128 | > 128 | > 128 | > 128 | > 128 | > 128 | 0.67 | -1.81 | 13.67 | -3.76 | 9.07 | 91.87 | -1.87 |
| CC1=C[C@H]2[C@H](C(C)C)CC[C@@](C)(O)[C@H]2C[C@H]1O | > 128 | > 128 | > 128 | > 128 | > 128 | > 128 | > 128 | > 128 | > 128 | > 128 | > 128 | > 128 | 5.64 | -5.25 | 4.58 | -8.69 | 12.99 | 87.41 | -6.33 |
| C[C@H]1CC[C@@H]2[C@H]3[C@H]1OC(C)(C)[C@@H]3CC[C@@]2(C)O (relative stereo) | > 128 | > 128 | > 128 | > 128 | > 128 | > 128 | > 128 | > 128 | > 128 | > 128 | > 128 | > 128 | 12.03 | -8.24 | -11.92 | 4.18 | 14.7 | 94.77 | -7.88 |
| CN(C)[C@@H]1C(O)=C(C(N)=O)C(=O)[C@@]2(O)C(O)=C3C(=O)c4c(O)cccc4[C@@](C)(O)[C@H]3C[C@@H]12 [TETRACYCLINE] | 4 | 2 | 4 | 2 | 0.5 | 2 | > 128 | 2 | 8 | 4 | > 128 | 8 |  |  |  |  |  |  |  |
